Data taken from patent US12637435B2, “Nitrogen-containing heterocyclic compound or salt thereof, use thereof, and intermediate thereof” (FUJIFILM Corporation, priority 2020, dated 2026).

Assays:
recombinant human DHODH = biological target: T1, recombinant human DHODH (Homo sapiens, UniProt Q02127); assay: DHODH enzyme reaction inhibition test (DCIP-coupled assay); assay type: biochemical; details: recombinant human DHODH 0.175 μg/mL, DCIP absorbance 600 nm, 50 minutes, pH 8.0; read-out: Enzyme reaction inhibitory effect (IC50)
T1 construct: DHODH, 31-395aa, Human, His tag, E. coli, ATGP1615; His tag; purchased ATGen Co. Ltd. ATGP1615; host or cells: E. coli
T1 sequence (Q02127 31-395): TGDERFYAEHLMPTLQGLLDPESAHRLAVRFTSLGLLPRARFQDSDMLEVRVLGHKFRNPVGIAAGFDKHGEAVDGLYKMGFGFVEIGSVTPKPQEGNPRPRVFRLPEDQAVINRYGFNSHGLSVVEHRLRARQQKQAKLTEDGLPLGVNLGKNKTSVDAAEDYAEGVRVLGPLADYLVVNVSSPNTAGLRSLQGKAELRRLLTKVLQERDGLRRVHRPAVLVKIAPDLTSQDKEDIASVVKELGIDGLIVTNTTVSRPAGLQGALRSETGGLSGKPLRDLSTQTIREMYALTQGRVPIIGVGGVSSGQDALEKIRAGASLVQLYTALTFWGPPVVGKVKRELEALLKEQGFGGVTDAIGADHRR
Experimental: The DHODH enzyme assay was carried out with reference to “Benjamin Bader, Wolfgang Knecht, Markus Fries, and Monika Loffler, Expression, Purification, and Characterization of Histidine-Tagged Rat and Human Flavoenzyme Dihydroorotate Dehydrogenase, Protein Expression and Purification, 1998, 13, 414-422.”
The DHODH activity was evaluated using an enzyme assay system that is coupled with an assay in which a blue coloring agent 2,6-dichlorophenolindophenol (DCIP, available from MP Biomedicals, LLC, MP150118) is quenched. Purified recombinant human DHODH (DHODH, 31-395aa, Human, His tag, E. coli, ATGP1615) was purchased from ATGen Co. Ltd. The enzyme assay was carried out in a 384-well plate using a buffer solution containing 100 mmol/L Hepes (available from Dojindo Laboratories, 342-01375), 400 mmol/L NaCl (available from FUJIFILM Wako Pure Chemical Corporation, 191-01665), 10% Glycerol (available from FUJIFILM Wako Pure Chemical Corporation, 075-00616), 0.05% Triton X-100 (available from Sigma-Aldrich Co., LLC, T8787-100ML), 0.2 mmol/L Ubiquinone-10 (available from FUJIFILM Wako Pure Chemical Corporation, 216-00761), 0.1 mmol/L DHO (L-dihydroorotic acid, available from Sigma-Aldrich Co., LLC, D7128), 0.5% DMSO (dimethylsulfoxide, available from FUJIFILM Wako Pure Chemical Corporation, 047-29353), 0.175 μg/mL DHODH, and 0.12 mmol/L DCIP and having a pH adjusted to 8.0 by adding 5 mol/L potassium hydroxide (available from FUJIFILM Wako Pure Chemical Corporation, 168-21815). A test compound with a predetermined concentration was added using Biomek NX (available from Beckman Coulter Inc.), and the enzyme reaction was started by adding the substrate. The enzyme activity was assessed by measuring the decrease in DCIP absorbance (600 nm) for 50 minutes using an EnVision plate-reading spectrophotometer (available from PerkinElmer, Inc.).
The enzyme reaction inhibition rate at each test compound concentration was determined, and the 50% enzyme reaction inhibition concentration [IC50 (nmol/L)] was calculated using XLfit. Enzyme reaction inhibition rate (%)=(amount of luminescence in test compound-added well)/(amount of luminescence in DMSO-added well)×100
The abbreviations in the table have the following meanings. • A: IC50 value<10 nmol/L • B: 10 nmol/L≤IC50 value<100 nmol/L • C: 100 nmol/L≤IC50 value

[1] = system: human myeloid leukemia cell line HL60; assay: Cell growth test, HL60 (CellTiter-Glo); assay type: cell-based; details: HL-60, 72 h, HL60 cells, 3 days, CellTiter-Glo luminescence, read-out: Cell growth inhibitory effect (GI50)
Experimental: The cell growth test was carried out using the human myeloid leukemia cell line HL60 (available from ATCC, CRL-240). As a culture medium of HL60 cells, RPMI 1640 (available from FUJIFILM Wako Pure Chemical Corporation, 189-02025) supplemented with 10% fetal bovine serum (available from Thermo Fisher Scientific, Inc., 10437-028), and 1% penicillin-streptomycin (10,000 U/mL, available from Thermo Fisher Scientific, Inc., 15140-122) was used. HL60 cells were seeded on a 384-well plate (available from Corning Inc., 4588) at a cell density of 1×10^3 cells/20 μL/well. After culturing overnight, 5 μL of the test compound having a predetermined concentration was added, and 3 days later, 25 μL of CellTiter-Glo (registered trademark) Luminescent Cell Viability Assay (available from Promega Corporation, G7573) was added, and then the amount of luminescence was measured using an EnVision plate reader (available from PerkinElmer, Inc.). Since the amount of luminescence is proportional to the intracellular concentration of adenosine triphosphate (ATP), the amount of luminescence was used as an indicator of the number of viable cells. The growth inhibitory concentration for each test compound concentration was calculated by the following expression.
The growth inhibition rate at each test compound concentration was determined, and the 50% growth inhibitory concentration [GI50 (nmol/L)] was calculated using XLfit. Growth inhibition rate (%)=(amount of luminescence in test compound-added well)/(amount of luminescence in DMSO-added well)×100
The abbreviations in the table have the following meanings. • A: GI50 value<100 nmol/L • B: 100 nmol/L≤GI50 value<1,000 nmol/L • C: 1,000 nmol/L≤GI50 value

Structure (SMILES) | IC50 (recombinant human DHODH) [nM] | GI50 [1] [nM]
NC(=O)c1nc(C2CC2)cnc1Nc1cccc(C2=CCOCC2)c1OCC(F)(F)F [Example 1-1, 6-cyclopropyl-3-((3-(3,6-dihydro-2H-pyran-4-yl)-2-(2,2,2-trifluoroethoxy)phenyl)amino)pyrazine-2-carboxamide] | 10 to 100 | < 100
OCc1nc(C2CC2)cnc1Nc1cccc(C2=CCOCC2)c1OCC(F)(F)F [Example 1-3] | 10 to 100 | 100 to 1000
Cc1ccc(-c2cccc(Nc3ncc(C4CC4)nc3C(=O)O)c2OCC(F)(F)F)c(C)n1 [Example 1-4, 6-cyclopropyl-3-((3-(2,6-dimethylpyridin-3-yl)-2-(2,2,2-trifluoroethoxy)phenyl)amino)pyrazine-2-carboxylic acid] | 10 to 100 | 100 to 1000
Cc1cc(C#N)ccc1-c1cccc(Nc2ncc(C3CC3)nc2C(=O)O)c1OCC(F)(F)F [Example 1-5, 3-((4′-cyano-2′-methyl-2-(2,2,2-trifluoroethoxy)-[1,1′-biphenyl]-3-yl)amino)-6-cyclopropylpyrazine-2-carboxylic acid] | < 10 | < 100
FC(F)(F)COc1c(Nc2ncc(C3CC3)nc2-c2nnn[nH]2)cccc1C1=CCOCC1 [Example 1-6] | < 10 | < 100
O=c1[nH]c(-c2nc(C3CC3)cnc2Nc2cccc(C3=CCOCC3)c2OCC(F)(F)F)no1 [Example 1-7, 3-(6-cyclopropyl-3-((3-(3,6-dihydro-2H-pyran-4-yl)-2-(2,2,2-trifluoroethoxy)phenyl)amino)pyrazin-2-yl)-1,2,4-oxadiazol-5(4H)-one] | < 10 | 100 to 1000
NNC(=O)c1nc(C2CC2)cnc1Nc1cccc(C2=CCOCC2)c1OCC(F)(F)F [Example 1-8, 6-cyclopropyl-3-((3-(3,6-dihydro-2H-pyran-4-yl)-2-(2,2,2-trifluoroethoxy)phenyl)amino)pyrazine-2-carbohydrazide] | 10 to 100 | 100 to 1000
O=c1[nH]nc(-c2nc(C3CC3)cnc2Nc2cccc(C3=CCOCC3)c2OCC(F)(F)F)o1 [Example 1-9, 5-(6-cyclopropyl-3-((3-(3,6-dihydro-2H-pyran-4-yl)-2-(2,2,2-trifluoroethoxy)phenyl)amino)pyrazin-2-yl)-1,3,4-oxadiazol-2(3H)-one] | 10 to 100 | 100 to 1000
CC(=O)c1nc(C2CC2)cnc1Nc1cccc(C2=CCOCC2)c1OCC(F)(F)F [Example 1-10, 1-(6-cyclopropyl-3-((3-(3,6-dihydro-2H-pyran-4-yl)-2-(2,2,2-trifluoroethoxy)phenyl)amino)pyrazin-2-yl)ethan-1-one] | 10 to 100 | 100 to 1000
CC(O)c1nc(C2CC2)cnc1Nc1cccc(C2=CCOCC2)c1OCC(F)(F)F (stereo not drawn) [Example 1-11, 1-(6-cyclopropyl-3-((3-(3,6-dihydro-2-H-pyran-4-yl)-2-(2,2,2-trifluoroethoxy)phenyl)amino)pyrazin-2-yl)ethan-1-ol] | ≥ 100 | ≥ 1000
CNNC(=O)c1nc(C2CC2)cnc1Nc1cccc(C2=CCOCC2)c1OCC(F)(F)F [Example 1-12, 6-cyclopropyl-3-((3-(3,6-dihydro-2H-pyran-4-yl)-2-(2,2,2-trifluoroethoxy)phenyl)amino)-N′-methylpyrazine-2-carbohydrazide] | 10 to 100 | 100 to 1000
CN(C)NC(=O)c1nc(C2CC2)cnc1Nc1cccc(C2=CCOCC2)c1OCC(F)(F)F [Example 1-13, 6-cyclopropyl-3-((3-(3,6-dihydro-2H-pyran-4-yl)-2-(2,2,2-trifluoroethoxy)phenyl)amino)-N,N-dimethylpyrazine-2-carbohydrazide] | ≥ 100 | ≥ 1000
O=Cc1nc(C2CC2)cnc1Nc1cccc(C2=CCOCC2)c1OCC(F)(F)F [Example 1-14, 6-cyclopropyl-3-((3-(3,6-dihydro-2H-pyran-4-yl)-2-(2,2,2-trifluoroethoxy)phenyl)amino)pyrazine-2-carbaldehyde] | ≥ 100 | ≥ 1000
CS(=O)(=O)NCc1nc(C2CC2)cnc1Nc1cccc(C2=CCOCC2)c1OCC(F)(F)F [Example 1-15, N-((6-cyclopropyl-3-((3-(3,6-dihydro-2H-pyran-4-yl)-2-(2,2,2-trifluoroethoxy)phenyl)amino)pyrazin-2-yl)methyl)methanesulfonamide] | ≥ 100 | ≥ 1000
N#CNCc1nc(C2CC2)cnc1Nc1cccc(C2=CCOCC2)c1OCC(F)(F)F [Example 1-16, N-((6-cyclopropyl-3-((3-(3,6-dihydro-2H-pyran-4-yl)-2-(2,2,2-trifluoroethoxy)phenyl)amino)pyrazin-2-yl)methyl)cyanamide] | 10 to 100 | 100 to 1000
NCc1nc(C2CC2)cnc1Nc1cccc(C2=CCOCC2)c1OCC(F)(F)F [Example 1-17, 3-(aminomethyl)-5-cyclopropyl-N-(3-(3,6-dihydro-2H-pyran-4-yl)-2-(2,2,2-trifluoroethoxy)phenyl)pyrazine-2-amine] | ≥ 100 | ≥ 1000
C[C@H](Oc1c(Nc2ccc(C3CC3)cc2C(=O)O)ccnc1C1=CCOCC1)C(F)(F)F [Example 1-18] | < 10 | < 100

Second part, the compound after the results:

IC50 (recombinant human DHODH) [nM] | GI50 [1] [nM] | Structure (SMILES)
< 10 | 100 to 1000 | O=C(O)c1cc(C2CC2)ccc1Nc1cncc(C2=CCOCC2)c1OCC(F)(F)F [Example 2-1]
< 10 | < 100 | O=C(O)c1cc(C2CC2)cnc1Nc1cc(F)cc(C2CCOCC2)c1OC(F)F [Example 2-3]
< 10 | < 100 | N#Cc1ccc(-c2cccc(Nc3ncc(C4CC4)nc3C(=O)O)c2OCC(F)(F)F)cc1 [Example 2-4]
< 10 | < 100 | O=C(O)c1cc(C2CC2)cnc1Nc1cccc(C2=CCOCC2)c1OCC(F)(F)F [Example 2-5]
< 10 | < 100 | C[C@H](Oc1c(Nc2ccc(C3CC3)cc2C(=O)O)cncc1C1=CCOCC1)C(F)(F)F [Example 2-6]
< 10 | < 100 | N#Cc1ccc(-c2cccc(Nc3ncc(C4CC4)cc3C(=O)O)c2OCC(F)(F)F)cc1 [Example 2-7]
< 10 | < 100 | O=C(O)c1cc(C2CC2)cnc1Nc1cc(F)cc(C2CCOCC2)c1OCC(F)(F)F [Example 2-8]
< 10 | < 100 | N#Cc1cccc(-c2cccc(Nc3ncc(C4CC4)nc3C(=O)O)c2OCC(F)(F)F)c1 [Example 2-9]
< 10 | < 100 | CCc1c(Nc2ncc(C3CC3)cc2C(=O)O)cccc1C1CCOCC1 [Example 2-10]
< 10 | 100 to 1000 | N#Cc1ccc(-c2cccc(Nc3ncc(C4CC4)nc3C(=O)O)c2OC(F)F)cc1 [Example 2-11]
10 to 100 | 100 to 1000 | N#Cc1ccc(-c2cc(F)cc(Nc3ncc(C4CC4)nc3C(=O)O)c2OC(F)F)cc1 [Example 2-12]
< 10 | < 100 | O=C(O)c1nc(C2CC2)cnc1Nc1cccc(-c2ccc(F)cc2)c1OCC(F)(F)F [Example 2-13]
< 10 | 100 to 1000 | CCOc1c(C2=CCOCC2)ccc(F)c1Nc1ncc(C2CC2)cc1C(=O)O [Example 2-14]
